# Data from US10670605B2, “Cysteine reactive probes and uses thereof” (The Scripps Research Institute, priority 2015, dated 2020).
# Assays:
# Assay in all cases: Competitive isoTOP-ABPP in situ (fragment-treated cells)
# Type in all cases: cell-based
# [1] = molecular target: cysteines in MDA-MB-231 and Ramos cells (Homo sapiens, UniProt Q96EY5)
# [2] = molecular target: cysteines in MDA-MB-231 and Ramos cells (Homo sapiens, UniProt P22061)
# [3] = molecular target: cysteines in MDA-MB-231 and Ramos cells (Homo sapiens, UniProt Q96RP9)
# [4] = molecular target: cysteines in MDA-MB-231 and Ramos cells (Homo sapiens, UniProt Q15118); details: for isoTOP-ABPP ratio Q15118_C71: 200 μM, insitu
# [5] = molecular target: cysteines in MDA-MB-231 and Ramos cells (Homo sapiens, UniProt P68366); details: for isoTOP-ABPP ratio P68366_C54: 200 μM, insitu
# [6] = molecular target: cysteines in MDA-MB-231 and Ramos cells (Homo sapiens, UniProt O14933)
# [7] = molecular target: cysteines in MDA-MB-231 and Ramos cells (Homo sapiens, UniProt Q96FX7); details: 100 μM in situ 231
# [8] = molecular target: cysteines in MDA-MB-231 and Ramos cells (Homo sapiens, UniProt Q06203)
# [9] = molecular target: cysteines in MDA-MB-231 and Ramos cells (Homo sapiens, UniProt P45984); details: for isoTOP-ABPP ratio P45984_C177: 200 μM, insitu
# [10] = molecular target: cysteines in MDA-MB-231 and Ramos cells (Homo sapiens, UniProt Q9UNI6)
# [11] = molecular target: cysteines in MDA-MB-231 and Ramos cells (Homo sapiens, UniProt Q9UJW0); details: 200 μM, insitu
# [12] = molecular target: T1, cysteines in MDA-MB-231 and Ramos cells (Homo sapiens, UniProt Q9NY27); details: 200 μM, insitu
# T1 sequence (Q9NY27 1-417): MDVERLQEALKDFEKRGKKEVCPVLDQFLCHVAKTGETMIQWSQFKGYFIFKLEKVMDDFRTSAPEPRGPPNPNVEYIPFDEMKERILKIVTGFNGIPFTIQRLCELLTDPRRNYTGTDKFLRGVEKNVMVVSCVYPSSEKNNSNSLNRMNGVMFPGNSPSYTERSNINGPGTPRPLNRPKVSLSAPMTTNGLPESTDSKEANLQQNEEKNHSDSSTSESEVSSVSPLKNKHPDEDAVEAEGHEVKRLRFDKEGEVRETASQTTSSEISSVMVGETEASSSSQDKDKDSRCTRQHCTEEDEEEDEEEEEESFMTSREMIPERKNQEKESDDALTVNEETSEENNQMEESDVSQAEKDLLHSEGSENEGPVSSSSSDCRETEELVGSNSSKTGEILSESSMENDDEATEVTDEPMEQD
# [13] = molecular target: T2, cysteines in MDA-MB-231 and Ramos cells (Homo sapiens, UniProt Q8WVV9); details: 200 μM, insitu, 231
# T2 sequence (Q8WVV9 1-542): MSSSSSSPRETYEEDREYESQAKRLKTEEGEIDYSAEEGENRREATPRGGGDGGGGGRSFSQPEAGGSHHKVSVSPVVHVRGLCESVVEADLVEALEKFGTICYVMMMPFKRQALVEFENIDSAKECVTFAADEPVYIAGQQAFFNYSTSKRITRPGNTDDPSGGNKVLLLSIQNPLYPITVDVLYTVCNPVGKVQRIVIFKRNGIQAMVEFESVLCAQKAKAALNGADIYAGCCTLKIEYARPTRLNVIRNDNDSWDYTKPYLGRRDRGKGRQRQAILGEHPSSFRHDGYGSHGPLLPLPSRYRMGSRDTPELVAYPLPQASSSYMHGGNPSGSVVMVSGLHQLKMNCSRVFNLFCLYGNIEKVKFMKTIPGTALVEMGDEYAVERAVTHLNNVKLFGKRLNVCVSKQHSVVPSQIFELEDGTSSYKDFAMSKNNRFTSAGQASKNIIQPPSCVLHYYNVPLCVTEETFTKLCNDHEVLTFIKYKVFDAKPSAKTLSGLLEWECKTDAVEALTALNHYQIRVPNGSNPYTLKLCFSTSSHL
# [14] = molecular target: T3, cysteines in MDA-MB-231 and Ramos cells (Homo sapiens, UniProt Q86UY8); details: 200 μM, insitu, 231
# T3 sequence (Q86UY8 1-548): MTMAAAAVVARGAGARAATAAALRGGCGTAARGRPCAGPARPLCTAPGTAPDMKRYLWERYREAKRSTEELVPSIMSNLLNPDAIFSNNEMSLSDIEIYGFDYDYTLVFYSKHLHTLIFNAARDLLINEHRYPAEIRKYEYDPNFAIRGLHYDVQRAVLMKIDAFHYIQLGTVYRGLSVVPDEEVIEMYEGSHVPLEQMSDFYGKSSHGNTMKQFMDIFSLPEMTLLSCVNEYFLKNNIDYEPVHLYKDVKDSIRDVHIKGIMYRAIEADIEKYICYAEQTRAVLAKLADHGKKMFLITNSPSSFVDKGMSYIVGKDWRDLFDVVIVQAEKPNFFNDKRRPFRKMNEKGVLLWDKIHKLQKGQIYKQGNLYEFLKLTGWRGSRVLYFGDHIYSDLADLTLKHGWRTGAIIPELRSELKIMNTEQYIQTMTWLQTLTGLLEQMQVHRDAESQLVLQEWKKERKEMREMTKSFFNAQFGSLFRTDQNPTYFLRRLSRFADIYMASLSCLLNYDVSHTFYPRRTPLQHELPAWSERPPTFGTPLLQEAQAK
# [15] = molecular target: cysteines in MDA-MB-231 and Ramos cells (Homo sapiens, UniProt O15446); details: 200 μM, insitu, 231
# [16] = molecular target: T4, cysteines in MDA-MB-231 and Ramos cells (Homo sapiens, UniProt Q13158); details: 200 μM, insitu
# T4 sequence (Q13158 1-208): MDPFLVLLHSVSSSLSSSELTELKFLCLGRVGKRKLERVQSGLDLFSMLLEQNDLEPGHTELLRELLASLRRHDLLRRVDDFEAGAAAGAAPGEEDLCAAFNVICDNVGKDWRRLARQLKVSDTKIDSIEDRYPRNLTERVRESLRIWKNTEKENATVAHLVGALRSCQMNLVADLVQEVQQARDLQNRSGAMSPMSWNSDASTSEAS
# cysteines in MDA-MB-231 and Ramos cells (Homo sapiens, UniProt Q9UJW0), sequence (Q9UJW0 whole entry): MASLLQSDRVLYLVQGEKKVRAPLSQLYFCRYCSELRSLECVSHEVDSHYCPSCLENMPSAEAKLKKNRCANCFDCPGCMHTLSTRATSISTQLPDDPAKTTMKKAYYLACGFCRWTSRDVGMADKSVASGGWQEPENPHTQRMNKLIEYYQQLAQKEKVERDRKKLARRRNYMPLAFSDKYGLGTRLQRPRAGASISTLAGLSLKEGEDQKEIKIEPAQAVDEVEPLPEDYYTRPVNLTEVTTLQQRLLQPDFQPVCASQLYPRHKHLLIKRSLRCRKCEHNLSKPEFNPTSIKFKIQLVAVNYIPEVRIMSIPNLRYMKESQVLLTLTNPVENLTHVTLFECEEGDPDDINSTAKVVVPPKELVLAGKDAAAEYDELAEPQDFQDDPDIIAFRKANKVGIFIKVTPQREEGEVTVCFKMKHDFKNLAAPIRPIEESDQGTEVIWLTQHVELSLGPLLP
# cysteines in MDA-MB-231 and Ramos cells (Homo sapiens, UniProt Q15118), sequence (Q15118 29-436): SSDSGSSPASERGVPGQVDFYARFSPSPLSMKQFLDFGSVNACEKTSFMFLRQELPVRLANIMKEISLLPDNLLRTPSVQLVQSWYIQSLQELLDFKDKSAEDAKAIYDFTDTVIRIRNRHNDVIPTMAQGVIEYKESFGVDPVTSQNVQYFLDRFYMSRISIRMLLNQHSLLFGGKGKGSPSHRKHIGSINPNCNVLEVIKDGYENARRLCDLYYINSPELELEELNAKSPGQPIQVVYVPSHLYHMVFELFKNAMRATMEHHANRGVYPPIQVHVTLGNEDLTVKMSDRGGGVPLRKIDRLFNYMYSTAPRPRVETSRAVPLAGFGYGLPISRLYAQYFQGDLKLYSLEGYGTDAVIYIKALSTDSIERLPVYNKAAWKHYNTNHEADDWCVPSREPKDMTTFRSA
# cysteines in MDA-MB-231 and Ramos cells (Homo sapiens, UniProt Q9UNI6), sequence (Q9UNI6 whole entry): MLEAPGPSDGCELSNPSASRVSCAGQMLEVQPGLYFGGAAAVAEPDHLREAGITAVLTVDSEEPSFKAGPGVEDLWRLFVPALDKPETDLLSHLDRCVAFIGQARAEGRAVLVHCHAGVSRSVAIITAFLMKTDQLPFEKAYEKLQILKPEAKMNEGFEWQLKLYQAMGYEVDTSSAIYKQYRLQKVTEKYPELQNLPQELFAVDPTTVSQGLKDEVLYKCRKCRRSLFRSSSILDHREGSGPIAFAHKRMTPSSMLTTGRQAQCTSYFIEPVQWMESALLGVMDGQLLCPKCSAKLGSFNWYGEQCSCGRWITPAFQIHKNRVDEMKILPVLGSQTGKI
# cysteines in MDA-MB-231 and Ramos cells (Homo sapiens, UniProt Q96RP9), sequence (Q96RP9 37-751): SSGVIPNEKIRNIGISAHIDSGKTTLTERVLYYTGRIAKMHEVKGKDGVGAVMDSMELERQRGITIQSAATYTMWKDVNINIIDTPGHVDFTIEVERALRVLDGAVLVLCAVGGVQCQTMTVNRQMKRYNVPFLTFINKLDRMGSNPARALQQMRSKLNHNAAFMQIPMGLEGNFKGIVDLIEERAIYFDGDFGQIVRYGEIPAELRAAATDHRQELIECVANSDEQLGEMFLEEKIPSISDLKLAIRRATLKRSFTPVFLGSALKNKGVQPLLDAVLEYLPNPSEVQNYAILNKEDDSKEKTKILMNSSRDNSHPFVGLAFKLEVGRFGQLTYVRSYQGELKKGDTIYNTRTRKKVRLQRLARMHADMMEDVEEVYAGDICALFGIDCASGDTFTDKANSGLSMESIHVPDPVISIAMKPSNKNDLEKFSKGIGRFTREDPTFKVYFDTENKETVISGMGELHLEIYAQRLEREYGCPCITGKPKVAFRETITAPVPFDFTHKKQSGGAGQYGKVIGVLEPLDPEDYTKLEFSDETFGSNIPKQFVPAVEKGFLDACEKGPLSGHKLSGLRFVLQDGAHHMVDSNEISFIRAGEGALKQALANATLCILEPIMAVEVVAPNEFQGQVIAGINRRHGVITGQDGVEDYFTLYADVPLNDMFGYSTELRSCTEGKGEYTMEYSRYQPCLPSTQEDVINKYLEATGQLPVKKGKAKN
# cysteines in MDA-MB-231 and Ramos cells (Homo sapiens, UniProt Q06203), sequence (Q06203 12-517): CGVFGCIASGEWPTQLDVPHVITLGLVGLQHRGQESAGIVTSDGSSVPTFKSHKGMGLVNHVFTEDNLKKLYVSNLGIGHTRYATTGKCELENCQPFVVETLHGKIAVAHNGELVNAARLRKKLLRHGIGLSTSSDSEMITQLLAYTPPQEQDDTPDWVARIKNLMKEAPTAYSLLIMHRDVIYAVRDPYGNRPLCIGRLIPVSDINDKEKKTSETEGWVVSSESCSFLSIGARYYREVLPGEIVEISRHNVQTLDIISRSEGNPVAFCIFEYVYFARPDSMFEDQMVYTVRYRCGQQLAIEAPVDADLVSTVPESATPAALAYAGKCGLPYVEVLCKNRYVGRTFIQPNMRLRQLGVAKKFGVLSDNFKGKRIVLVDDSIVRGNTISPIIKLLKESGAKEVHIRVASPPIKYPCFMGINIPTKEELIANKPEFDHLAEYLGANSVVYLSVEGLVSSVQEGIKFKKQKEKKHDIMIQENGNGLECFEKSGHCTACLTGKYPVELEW
# cysteines in MDA-MB-231 and Ramos cells (Homo sapiens, UniProt P22061), sequence (P22061 whole entry): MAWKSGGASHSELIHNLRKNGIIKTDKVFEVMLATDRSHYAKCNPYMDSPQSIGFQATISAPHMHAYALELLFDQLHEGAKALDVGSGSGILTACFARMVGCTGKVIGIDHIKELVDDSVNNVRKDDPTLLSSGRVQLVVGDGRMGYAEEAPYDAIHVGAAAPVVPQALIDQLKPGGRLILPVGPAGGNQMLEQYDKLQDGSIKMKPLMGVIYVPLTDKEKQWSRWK
# cysteines in MDA-MB-231 and Ramos cells (Homo sapiens, UniProt O14933), sequence (O14933 whole entry): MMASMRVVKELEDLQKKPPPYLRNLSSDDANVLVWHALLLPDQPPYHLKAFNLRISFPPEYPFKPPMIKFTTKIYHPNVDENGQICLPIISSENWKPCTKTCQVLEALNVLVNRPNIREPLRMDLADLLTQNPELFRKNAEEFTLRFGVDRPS
# cysteines in MDA-MB-231 and Ramos cells (Homo sapiens, UniProt P45984), sequence (P45984 whole entry): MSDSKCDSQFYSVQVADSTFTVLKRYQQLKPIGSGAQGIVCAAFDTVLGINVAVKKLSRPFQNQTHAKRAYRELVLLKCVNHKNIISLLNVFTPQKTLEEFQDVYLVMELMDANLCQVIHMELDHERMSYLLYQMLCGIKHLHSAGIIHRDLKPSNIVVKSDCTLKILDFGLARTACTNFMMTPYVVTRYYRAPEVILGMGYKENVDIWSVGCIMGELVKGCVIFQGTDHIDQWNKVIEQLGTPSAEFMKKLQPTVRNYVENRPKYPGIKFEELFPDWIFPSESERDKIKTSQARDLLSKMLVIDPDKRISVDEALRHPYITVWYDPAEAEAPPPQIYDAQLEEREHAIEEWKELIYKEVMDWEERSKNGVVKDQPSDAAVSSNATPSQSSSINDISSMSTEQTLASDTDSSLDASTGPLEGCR
# cysteines in MDA-MB-231 and Ramos cells (Homo sapiens, UniProt P68366), sequence (P68366 whole entry): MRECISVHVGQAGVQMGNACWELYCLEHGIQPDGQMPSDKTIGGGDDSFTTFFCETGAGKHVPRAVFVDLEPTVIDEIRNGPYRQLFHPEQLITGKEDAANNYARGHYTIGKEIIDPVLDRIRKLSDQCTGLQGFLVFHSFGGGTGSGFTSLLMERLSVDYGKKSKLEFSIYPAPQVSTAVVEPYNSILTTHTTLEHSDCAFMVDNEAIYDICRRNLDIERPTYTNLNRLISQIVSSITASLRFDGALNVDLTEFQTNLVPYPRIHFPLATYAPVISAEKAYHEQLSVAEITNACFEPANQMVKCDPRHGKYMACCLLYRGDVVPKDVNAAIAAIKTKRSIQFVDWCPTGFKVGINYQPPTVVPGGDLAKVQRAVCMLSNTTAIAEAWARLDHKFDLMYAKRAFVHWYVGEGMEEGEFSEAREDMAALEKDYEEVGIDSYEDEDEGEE
# cysteines in MDA-MB-231 and Ramos cells (Homo sapiens, UniProt O15446), sequence (O15446 whole entry): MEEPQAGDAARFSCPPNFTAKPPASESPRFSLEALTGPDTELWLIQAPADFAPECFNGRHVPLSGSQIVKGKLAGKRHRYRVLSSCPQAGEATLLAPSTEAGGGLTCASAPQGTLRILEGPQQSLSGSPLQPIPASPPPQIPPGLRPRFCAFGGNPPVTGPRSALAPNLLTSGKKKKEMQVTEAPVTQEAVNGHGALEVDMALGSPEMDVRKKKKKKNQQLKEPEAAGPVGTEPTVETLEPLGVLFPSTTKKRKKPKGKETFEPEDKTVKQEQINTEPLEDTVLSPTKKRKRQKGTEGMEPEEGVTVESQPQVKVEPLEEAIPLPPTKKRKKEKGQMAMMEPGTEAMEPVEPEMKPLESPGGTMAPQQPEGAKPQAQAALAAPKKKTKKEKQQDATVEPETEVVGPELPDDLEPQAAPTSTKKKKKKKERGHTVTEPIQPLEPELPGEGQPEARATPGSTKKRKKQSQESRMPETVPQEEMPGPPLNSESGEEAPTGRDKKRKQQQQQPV
# cysteines in MDA-MB-231 and Ramos cells (Homo sapiens, UniProt Q96FX7), sequence (Q96FX7 whole entry): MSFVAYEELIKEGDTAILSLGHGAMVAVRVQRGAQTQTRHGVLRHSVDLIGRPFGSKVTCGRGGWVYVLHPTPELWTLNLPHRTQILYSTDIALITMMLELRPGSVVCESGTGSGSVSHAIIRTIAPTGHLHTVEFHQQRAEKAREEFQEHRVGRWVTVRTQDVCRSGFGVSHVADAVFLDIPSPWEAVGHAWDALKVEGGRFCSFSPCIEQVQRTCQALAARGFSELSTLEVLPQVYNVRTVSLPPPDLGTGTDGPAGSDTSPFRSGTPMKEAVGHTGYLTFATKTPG
structure (smiles),measurement,setting,value
COc1ccc(C2CC(c3cccs3)=NN2C(=O)CCl)cc1 (stereo not drawn) [compound 4],isoTOP-ABPP reactivity Q96EY5_C231 FAM125A,[1]; 100 μM in situ 231,1.7
same,isoTOP-ABPP reactivity P22061_C102 PCMT1,[2]; 100 μM in situ 231,2.8
same,isoTOP-ABPP reactivity Q96RP9_C153 GFM1,[3]; 100 μM in situ 231,1.0
same,isoTOP-ABPP reactivity Q15118_C71 PDK1,[4]; 100 μM in situ 231,20.0
same,isoTOP-ABPP reactivity P68366_C54 TUBA4A,[5]; 100 μM in situ 231,0.8
same,isoTOP-ABPP reactivity O14933_C98 UBE2L6,[6]; 100 μM in situ 231,3.0
same,isoTOP-ABPP reactivity Q96FX7_C209 TRMT61A,[7],2.4
same,isoTOP-ABPP reactivity Q06203_C100 PPAT,[8]; 100 μM in situ 231,1.7
same,isoTOP-ABPP reactivity P45984_C177 MAPK9,[9]; 100 μM in situ 231,12.0
same,isoTOP-ABPP reactivity Q9UNI6_C265 DUSP12,[10]; 100 μM in situ 231,0.8
O=C(CCl)Nc1cccc2ncccc12 [compound 51],isoTOP-ABPP ratio Q9UJW0_C258,[11]; 231,1.1
same,isoTOP-ABPP ratio Q9NY27_C22,[12]; 231,2.2
same,isoTOP-ABPP ratio Q8WVV9_C464,[13],3.2
same,isoTOP-ABPP ratio Q86UY8_C276,[14],1.2
O=C(CCl)N1CCN(S(=O)(=O)c2ccccc2F)CC1 [compound 10],isoTOP-ABPP ratio P22061_C102,"[2]; 200 μM, insitu, 231",1.6
same,"isoTOP-ABPP ratio, cysteine Q96RP9_C153","[3]; 200 μM, insitu, 231",14.8
same,isoTOP-ABPP ratio Q15118_C71,[4]; 231,18.0
same,isoTOP-ABPP ratio Q15118_C71,[4]; ramos,2.7
same,isoTOP-ABPP ratio Q9UJW0_C258,[11]; 231,20.0
same,isoTOP-ABPP ratio Q9UJW0_C258,[11]; ramos,20.0
same,isoTOP-ABPP ratio Q9NY27_C22,[12]; ramos,2.1
same,isoTOP-ABPP ratio P68366_C54,[5]; 231,7.9
same,isoTOP-ABPP ratio P68366_C54,[5]; ramos,2.8
same,"isoTOP-ABPP ratio, cysteine O15446_C86",[15],4.7
same,"isoTOP-ABPP ratio, cysteine O14933_C98","[6]; 200 μM, insitu, 231",20.0
same,"isoTOP-ABPP ratio, cysteine O14933_C98","[6]; 200 μM, insitu, ramos",3.2
same,"isoTOP-ABPP ratio, cysteine Q06203_C100","[8]; 200 μM, insitu, ramos",20.0
same,isoTOP-ABPP ratio P45984_C177,[9]; 231,20.0
same,"isoTOP-ABPP ratio, cysteine Q9UNI6_C265","[10]; 200 μM, insitu, 231",1.2
same,isoTOP-ABPP ratio Q86UY8_C276,[14],5.8
O=C(CCl)N1CCN(CC(=O)N2CCOCC2)CC1 [compound 29],isoTOP-ABPP ratio Q96EY5_C231,"[1]; 200 μM, insitu, ramos",1.1
same,isoTOP-ABPP ratio P22061_,"[2]; 200 μM, insitu, ramos",1.2
same,isoTOP-ABPP ratio Q96RP9_C153,"[3]; 200 μM, insitu, ramos",1.2
same,isoTOP-ABPP ratio Q15118_C71,[4]; ramos,1.8
same,isoTOP-ABPP ratio Q9UJW0_C258,[11]; ramos,20.0
same,isoTOP-ABPP ratio Q13158_C98,[16]; ramos,1.3
same,isoTOP-ABPP ratio Q9NY27_C22,[12]; ramos,1.7
same,isoTOP-ABPP ratio P68366_C54,[5]; ramos,1.0
same,isoTOP-ABPP ratio O14933_C98,"[6]; 200 μM, insitu, ramos",2.4
same,isoTOP-ABPP ratio Q06203_C100,"[8]; 200 μM, insitu, ramos",1.6
same,isoTOP-ABPP ratio P45984_C177,[9]; ramos,1.7
CC(C)CCOCCNC(=O)CCl [compound 27],isoTOP-ABPP ratio Q96EY5_C231,"[1]; 200 μM, insitu, 231",0.6
same,isoTOP-ABPP ratio P22061_,"[2]; 200 μM, insitu, 231",2.2
same,isoTOP-ABPP ratio Q96RP9_C153,"[3]; 200 μM, insitu, 231",1.6
same,isoTOP-ABPP ratio Q15118_C71,[4]; 231,1.5
same,isoTOP-ABPP ratio Q9UJW0_C258,[11]; 231,0.8
same,isoTOP-ABPP ratio Q13158_C98,[16]; 231,0.6
same,isoTOP-ABPP ratio P68366_C54,[5]; 231,0.3
same,isoTOP-ABPP ratio Q06203_C100,"[8]; 200 μM, insitu, 231",0.8
same,isoTOP-ABPP ratio P45984_C177,[9]; 231,0.5
same,isoTOP-ABPP ratio Q9UNI6_C265,"[10]; 200 μM, insitu, 231",0.6
same,isoTOP-ABPP ratio Q86UY8_C276,[14],1.7
O=C(CCl)N1CCC(Cc2ccccc2)CC1 [compound 9],isoTOP-ABPP reactivity Q96EY5_C231 FAM125A,"[1]; 200 μM, insitu, 231",1.9
same,isoTOP-ABPP reactivity P22061_C102 PCMT1,"[2]; 200 μM, insitu, 231",1.2
